Test results as given in patent US9937227B2, “Humanin, analogs and cancer treatment methods and uses thereof” (LOS ANGELES BIOMEDICAL RESEARCH INSTITUTE AT HARBOR-UCLA …, priority 2014, dated 2018).
Several values for one entry are separate records, joined by “and”; a condition that tells them apart may be missing. Equal entries are not always repeated. Where two headings read alike, the source gives them in different places.

Tests used:
[1] = tested on: IGF-1; test: Plasma IGF-1 in mice bearing metastatic lung melanomas; assay type: in vivo, mouse; settings: 14 days; HNG 5 mg/kg/day IP, CP 200 mg/kg IP single injection
Description: These preliminary data support a concept that HN is a caloric restriction mimetic, and its cytotoxic effects in cancer may be mediated by lowering IGF-1 without increasing GH and insulin.

[2] = tested on: male germ cells
[3] = tested on: B16 murine melanoma cells; test: Metastatic lung tumors in mouse B16 melanoma model (Experiments 3 and 4); assay type: in vivo
Protocol: (§1) A total of 25 young adult mice (10-12 weeks) were randomly divided into 5 groups (n=5 per group). Five mice were used as control. Twenty mice were inoculated intravenously with B16 murine melanoma cells (2×10^5 cells/mouse). Among these 20 tumor-inoculated mice, 5 mice received no further treatment. After one week, the remaining 15 mice were divided into 3 groups and injected with: 1) HNG daily IP (5 mg/Kg body weight) for 2 weeks; 2) CP (200 mg/Kg body weight IP single injection); 3) combined CP with HNG treatment (same doses as above). All mice were sacrificed 3 weeks after tumor inoculation, and 2 weeks after HNG and/or CP treatment. The animals were sacrificed with 5% pentobarbital (200 mg/kg body weight) IP injection after which blood was collected from the right atrium of the heart. One of the testes from each mouse was immersed fixed in Bouin's solution, and the mice were perfused with saline and subsequently perfuse-fixed with 5% glutaraldehyde in 0.05 M cacodylate buffer (pH 7.4). The lungs were dissected out and post fixed in 5% glutaraldehyde solution for 24 hours and stored in cacodylate buffer at 4° C. for the subsequent tumor count (Lue, et al., 2010; Lue, et al., 2009).
Experiment 3 was repeated after inoculation of B16 melanoma tumor at week 1 and then treated with the following treatment starting at week 2 (n=5 mice per group): 1). No treatment; 2). HNG IP injections 5 mg/Kg daily; 3) CP 200 mg/Kg single IP injection; 4) HNG 5 mg/Kg/day+CP; 5). HNG IP injections 15 mg/Kg daily; and 6). HNG 15 mg/Kg/day+CP. All animals were euthanized and perfused with 4% paraformaldehyde at the end of week 3. Lungs and testes were collected and processed as in experiment 3. Methods
B16 melanoma tumors in the lung were quantified by counting the number of tumors on the surface of the lungs under stereomicroscopy (Collisson, et al., 2003; Craft, et al., 2005). The size of the tumor was measured using histomorphometry and expressed as average size of tumor. The appearance of the melanoma cells were reviewed and characterized by an expert pathologist.

[4] = tested on: male germ cells; assay type: in vivo; settings: middle stages (VII-VIII); same doses; 24 hours; monohydrate
Protocol: For the HN analog experiments, male mice were divided into seven groups (n=4-5 per group) and received one of the following treatments and sacrificed after 24 hours: 1) vehicle (control); 2) a single intra-peritoneal (IP) injection of HN peptide [HN, 40 mg/Kg body weight (BW)]; 3) a single IP injection of CP (CP, 200 mg/Kg BW); 4) IP injection of CP and HN (CP+HN); 5) a single IP injection of each HN analog (HNG 5 mg/Kg BW, HNG-F6A 5 mg/Kg BW, HN-S7A 40 mg/Kg BW, HN-C8P 40 mg/Kg BW, or HN-L12A 40 mg/Kg BW); 6) IP injection of CP and each HN analog (CP+HNG, HNG-F6A, HN-S7A, HN-C8P, or HN-L12A); and 7) IP injection of CP+HN+HN analog (HN-S7A, HN-C8P, or HN-L12A; to assess whether the analogs has enhancing or inhibitory effect on HN).
To facilitate testicular fixation by using a whole-body perfusion technique, all animals were injected with heparin (130 IU/100 g BW, IP) 15 min before a lethal injection of sodium pentobarbital (200 mg/kg BW, IP) (Lue Y H, et al., 1999). One testis was removed and weighed after perfusion with saline. Portions of testicular parenchyma were snap frozen in liquid nitrogen, and stored at −80 C for Western blotting. The other testis was fixed by vascular perfusion with Bouin's solution, and processed with routine paraffin embedding for in situ detection of apoptosis.
Detection of apoptotic cells was performed in Bouin's'-fixed, paraffin-embedded testicular sections by the terminal deoxynucleotidyl transferase (TdT)-mediated deoxy-UTP nick end labeling (TUNEL) technique (Sinha Hikim A P, et al., 1997) using an ApopTag-peroxidase kit (Chemicon International, Inc., Temecula, Calif.). Enumeration of the Sertoli cell nuclei with distinct nucleoli and apoptotic germ cell population was quantified at stages I-IV (early stages), stages VII-VIII (middle stages) and stages XI-XII (late stages) of the seminiferous epithelial cycle using an Olympus BH-2 microscope (New Hyde Park, N.Y.). Stages were identified according to the criteria proposed by Russell et al for paraffin sections (Russell L, 1977). The rate of germ cell apoptosis (apoptotic index, AI) was expressed as the number of apoptotic germ cells per Sertoli cells (Sinha Hikim A P, et al., 1997).

[5] = tested on: male germ cells; assay type: in vivo, mouse; settings: B16 tumor-bearing mice; CP 200 mg/Kg single IP, 2 weeks
Protocol: as §1

[6] = tested on: sperm output; test: Cauda epididymal sperm count after multiple doses of CP; assay type: in vivo, mouse; settings: 28 days; HNG 10 mg/kg BW daily SC; CP 150 mg/kg BW IP, 6 doses at 5-day intervals
Protocol: The objective of this study was to investigate whether HNG has protective effect on sperm output after multiple doses of CP in mice. Thirty adult male mice (C57BL/6J) were randomized into 4 groups: 1) 5 as control; 2) 5 received daily subcutaneously injection of HNG (10 mg/kg BW); 3) 10 were given 6 doses of CP (150 mg/kg BW) intraperitoneally at 5-day intervals; 4) 10 received both HNG and CP. All mice were killed at 28 days. Plasma HNG and IGF-1 levels were measured by ELISAs. The cauda epididymal sperm count was performed using a hemocytometer.

Q: With `O=P1(N(CCCl)CCCl)NCCCO1` (centres unmarked) [CP, cyclophosphamide monohydrate] as the compound, how does the “plasma IGF-1 levels” value [1] read?
A: modestly suppressed

Q: And the “germ cell apoptosis compared to control” value ([2]; early (I-VI) and late (IX-XIV) stages, EDS pre-treated)?
A: did not significantly increased

Q: What about the “germ cell apoptosis compared to control” value ([2]; early (I-VI) and late (IX-XIV) stages, no EDS, CP 70 mg/kg BW IP, 12 hours) of the same compound?
A: significantly increased

Q: What about the “CP induced germ cell apoptosis in EDS pre-treated rats vs without EDS” value ([2]; early and late stages) of the same compound?
A: significantly lower

Q: And the “germ cell apoptosis compared to control” value ([2]; middle (VII-VIII) stages, no EDS, CP 70 mg/kg BW)?
A: did not increase

Q: And the “number of metastatic tumors on the surface of the lungs vs non-treated tumor-bearing mice” value ([3]; Experiment 3, HNG 5 mg/Kg daily IP 2 weeks or CP 200 mg/Kg single IP)?
A: decreased number of tumors

Q: And the “size of the melanoma metastasis on the surface of the lungs” value ([3]; Experiment 3, HNG 5 mg/Kg daily or CP 200 mg/Kg single IP)?
A: decreased number of tumors but also tumor size

Q: And the “number of lung tumors vs non-treated tumor-bearing mice” value ([3]; Experiment 4, HNG 5 mg/kg BW daily or CP 200 mg/Kg single IP)?
A: significantly decreased both the number and size of the tumors

Q: What about the “size of the lung tumors vs non-treated” value ([3]; Experiment 4, HNG 5 and 15 mg/kg BW, CP 200 mg/Kg) of the same compound?
A: significantly decreased both the number and size of the tumors

Q: And the “lung metastatic melanoma histology (differentiation of melanoma cells)” value ([3]; HNG 5 mg/kg BW, CP, or combination)?
A: minor differentiation

Q: What about the “apoptotic index (AI, apoptotic germ cells per Sertoli cell)” value [4] of the same compound?
A: 0.25±0.03 and 0.33±0.03

Q: And the “germ cell apoptosis compared to control and HNG treated mice” value [5]?
A: further significantly increased

Q: What about the “testis weight in comparison with control, non-treated tumor bearing and HNG treated mice” value [5] of the same compound?
A: significantly decreased

Q: What about the epididymal sperm counts [6] of the same compound?
A: 0.5±0.1 ×10^6/mg
